{"source": "patent US20040106678A1", "about": "“Compositions for the parenteral administration of calcium and magnesium” (priority 2002, published 2004)", "key": {"[1]": {"settings": "parenteral administration; cited from earlier work"}, "[2]": {"settings": "saturated aqueous solution at 20° C.; cited from earlier work"}, "[3]": {"experiment": "pH of aqueous solution", "assay_type": "physicochemical"}, "[4]": {"experiment": "stability of the powder / shelf life", "assay_type": "physicochemical"}, "[5]": {"experiment": "toxicity / tolerability on parenteral use", "settings": "anion is a naturally occurring mammalian metabolite"}}, "data": [{"compound": "[Ca+2].[Cl-].[Cl-]", "note": "[Calcium chloride]", "values": [{"measurement": "venous toxicity", "setting": "[1]", "result": "appreciably toxic to veins"}]}, {"compound": "D-gluconic acid calcium salt [Calcium gluconate]", "values": [{"measurement": "pH of saturated solution", "setting": "[2]", "result": "6-7"}]}, {"compound": "calcium 3-hydroxy-3-methylbutyrate [CaHMB]", "values": [{"measurement": "pH of saturated aqueous solution", "setting": "[3]; 27% by weight saturated aqueous solution at 20° C.", "result": "neutral or slightly alkaline"}, {"measurement": "pH of aqueous solution in distilled water", "setting": "[3]; if pure, dissolved in distilled water", "result": "nearly neutral or slightly alkaline"}, {"measurement": "powder stability / shelf life", "setting": "[4]", "result": "stable powders with long shelf lives"}, {"measurement": "toxicity", "setting": "[5]", "result": "non-toxic"}]}]}
